Measurements published in patent US5698522A, “6-position modified decapeptide LHRH antagonists” (Abbott Laboratories, priority 1995, dated 1997).
Where a SMILES comes first, the peptide text is derived from it. Side-chain parts run from the residue outwards. [ ]: non-standard residue; d: D form. The star is where a group is joined. X3 = O=Cn1cc(C[C@@H](NC(=O)C2=C[C@@H](O)[C@@H](O)[C@H](O)C2)C(=O)*)c2ccccc21; Shikimoyl = O=C(C1=C[C@@H](O)[C@@H](O)[C@H](O)C1)*; dPhe(4-Cl) = N[C@H](Cc1ccc(Cl)cc1)C(=O)O; d2Nal = N[C@H](Cc1ccc2ccccc2c1)C(=O)O; Lys(iPr) = CC(C)NCCCC[C@H](N)C(=O)O; NMeY = CN[C@@H](Cc1ccc(O)cc1)C(=O)O; d3Pal = N[C@H](Cc1cccnc1)C(=O)O; Salicyloyl = O=C(c1ccccc1O)*; Nicotinoyl = O=C(c1cccnc1)*; dOrn = NCCC[C@@H](N)C(=O)O; 2Furoyl = O=C(c1ccco1)*; Ahx = NCCCCCC(=O)O; GABA = NCCCC(=O)O; azaGly = NNC(=O)O; βAla = NCCC(=O)O; Sar = CNCC(=O)O

Target: T1, LHRH receptor (Rattus norvegicus, UniProt P30969)
T1 construct: endogenous in cells
T1 sequence (P30969 1-327): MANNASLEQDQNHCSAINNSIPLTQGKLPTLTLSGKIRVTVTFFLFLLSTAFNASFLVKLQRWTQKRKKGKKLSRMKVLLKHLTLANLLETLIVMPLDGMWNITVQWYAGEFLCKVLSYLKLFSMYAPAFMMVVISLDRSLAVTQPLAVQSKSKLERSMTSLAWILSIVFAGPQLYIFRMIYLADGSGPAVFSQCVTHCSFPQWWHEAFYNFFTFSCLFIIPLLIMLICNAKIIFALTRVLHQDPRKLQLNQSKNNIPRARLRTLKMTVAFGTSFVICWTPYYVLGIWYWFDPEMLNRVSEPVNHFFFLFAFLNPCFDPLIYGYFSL
Test: in vitro LHRH antagonist potency (pA2) against the agonist leuprolide
Assay type: cell-based
Details: negative logarithm of the antagonist concentration which shifts the response curve produced by the agonist leuprolide to two-fold higher concentration
Description: Representative compounds of the present invention were evaluated in in vitro tests for receptor binding (pKI) and for LHRH antagonist potency (pA2). The tests employed the methods detailed in F. Haviv, et al., J. Med. Chem., 32: 2340-2344 (1989). The receptor binding affinities (pKI) are the negative logarithms of the equilibtirum dissociation constants (pA2) are the negative logarithms of the concentration of antagonist which shift the response curve roduced by the agonist leuprolide to two-fold higher concentration. (Leuprolide is the LHRH agonist having the structure 5-oxo-Pro^1 -His^2 -Trp^3 -Ser^4 -Tyr^5 -D-Leu^6 -Leu^7 -Arg^8 -Pro^9 -NHEt and is disclosed and claimed in U.S. Pat. No. 4,005,063.) Typically pA2 values of 9.5 or greater are indicative of good LHRH antagonist potency.

SMILES | Kb [pM]
CC(=O)N[C@H](Cc1ccc2ccccc2c1)C(=O)N[C@H](Cc1ccc(Cl)cc1)C(=O)N[C@H](Cc1cccnc1)C(=O)N[C@@H](CO)C(=O)N(C)[C@@H](Cc1ccc(O)cc1)C(=O)N[C@H](CCCCNC(=O)CN(C)C(=O)C1=C[C@@H](O)[C@@H](O)[C@H](O)C1)C(=O)N[C@@H](CC(C)C)C(=O)N[C@@H](CCCNC(=N)N)C(=O)N1CCC[C@H]1C(=O)N[C@H](C)C(N)=O [Example 48f, NAc-D2Nal^1 -D4ClPhe^2 -D3Pal^3 -Ser^4 -NMeTyr^5 -DLys(N-epsilon-Sar-Shikimyl)^6 -Leu^7 -Arg^8 -Pro^9 -DAla^10 NH2] (Ac-[d2Nal][dPhe(4-Cl)][d3Pal]S[NMeY][dK]([Sar-Shikimoyl])LRP[dA]-NH2) | 12.6
CC(=O)N[C@H](Cc1ccc2ccccc2c1)C(=O)N[C@H](Cc1ccc(Cl)cc1)C(=O)N[C@H](Cc1cccnc1)C(=O)N[C@@H](CO)C(=O)N(C)[C@@H](Cc1ccc(O)cc1)C(=O)N[C@H](CCCCNC(=O)CCNC(=O)c1cccnc1)C(=O)N[C@@H](CC(C)C)C(=O)N[C@@H](CCCCNC(C)C)C(=O)N1CCC[C@H]1C(=O)N[C@H](C)C(N)=O [Example 4a] (Ac-[d2Nal][dPhe(4-Cl)][d3Pal]S[NMeY][dK]([βAla-Nicotinoyl])L[Lys(iPr)]P[dA]-NH2) | 5.62
CC(=O)N[C@H](Cc1ccc2ccccc2c1)C(=O)N[C@H](Cc1ccc(Cl)cc1)C(=O)N[C@H](Cc1cccnc1)C(=O)N[C@@H](CO)C(=O)N(C)[C@@H](Cc1ccc(O)cc1)C(=O)N[C@H](CCCCNC(=O)CCCCCNC(=O)CCNC(=O)c1cccnc1)C(=O)N[C@@H](CC(C)C)C(=O)N[C@@H](CCCCNC(C)C)C(=O)N1CCC[C@H]1C(=O)N[C@H](C)C(N)=O [Example 19a, NAc-D2Nal-D4ClPhe^2 -D3Pal^3 -Ser^4 -NMeTyr^5 -DLys[N-epsilon-(N'-epsilon-Aminocaproyl)(N"-beta-Alanyl)-Nicotinyl]^6-Leu^7 -Lys(N-epsilon-Isopropyl)^8 -Pro^9 -DAla^10 NH2] (Ac-[d2Nal][dPhe(4-Cl)][d3Pal]S[NMeY][dK]([Ahx-βAla-Nicotinoyl])L[Lys(iPr)]P[dA]-NH2) | 24
CC(=O)N[C@@H](CO)C(=O)NCCCC[C@@H](NC(=O)[C@H](Cc1ccc(O)cc1)N(C)C(=O)[C@H](CO)NC(=O)[C@@H](Cc1cccnc1)NC(=O)[C@@H](Cc1ccc(Cl)cc1)NC(=O)[C@@H](Cc1ccc2ccccc2c1)NC(C)=O)C(=O)N[C@@H](CC(C)C)C(=O)N[C@@H](CCCNC(=N)N)C(=O)N1CCC[C@H]1C(=O)N[C@H](C)C(N)=O [Example 9, NAc-D2Nal^1 -D4ClPhe^2 -D3Pal^3 -Ser^4 -NMeTyr^5 -DLys(N-epsilon-Ser-Acetyl)^6 -Leu^7 -Arg^8 -Pro^9 -DAla^10 NH2] (Ac-[d2Nal][dPhe(4-Cl)][d3Pal]S[NMeY][dK]([Ser-Ac])LRP[dA]-NH2) | 8.91
CC(=O)N[C@H](Cc1ccc2ccccc2c1)C(=O)N[C@H](Cc1ccc(Cl)cc1)C(=O)N[C@H](Cc1cccnc1)C(=O)N[C@@H](CO)C(=O)N(C)[C@@H](Cc1ccc(O)cc1)C(=O)N[C@H](CCCCNC(=O)CCCNC(=O)NNC(=O)c1cccnc1)C(=O)N[C@@H](CC(C)C)C(=O)N[C@@H](CCCCNC(C)C)C(=O)N1CCC[C@H]1C(=O)N[C@H](C)C(N)=O [Example 25b, NAc-D2Nal^1 -D4ClPhe^2 -D3Pal^3 -Ser^4 -NMeTyr^5 -DLys[N-epsilon-(gamma-Aminobutyryl)-Azagly-Nicotinyl]^6 -Leu^7 -Lys(N-epsilon-Isopropyl)^8 -Pro^9 -DAla^10 NH2] (Ac-[d2Nal][dPhe(4-Cl)][d3Pal]S[NMeY][dK]([GABA-azaGly-Nicotinoyl])L[Lys(iPr)]P[dA]-NH2) | 40.7
CC(=O)N[C@H](Cc1ccc2ccccc2c1)C(=O)N[C@H](Cc1ccc(Cl)cc1)C(=O)N[C@H](Cc1cccnc1)C(=O)N[C@@H](CO)C(=O)N(C)[C@@H](Cc1ccc(O)cc1)C(=O)N[C@H](CCCCNC(=O)[C@H](NC(=O)C1=C[C@@H](O)[C@@H](O)[C@H](O)C1)[C@H](C)O)C(=O)N[C@@H](CC(C)C)C(=O)N[C@@H](CCCNC(=N)N)C(=O)N1CCC[C@H]1C(=O)N[C@H](C)C(N)=O [Example 38d, NAc-D2Nal^1 -D4ClPhe^2 -D3Pal^3 -Ser^4 -NMeTyr^5 -DLys(N-epsilon-DThr-Shikimyl)^6 -Leu^7 -Arg^8 -Pro^9 -DAla^10 NH2] (Ac-[d2Nal][dPhe(4-Cl)][d3Pal]S[NMeY][dK]([dT-Shikimoyl])LRP[dA]-NH2) | 20
CC(=O)N[C@H](Cc1ccc2ccccc2c1)C(=O)N[C@H](Cc1ccc(Cl)cc1)C(=O)N[C@H](Cc1cccnc1)C(=O)N[C@@H](CO)C(=O)N(C)[C@@H](Cc1ccc(O)cc1)C(=O)N[C@H](CCCNC(=O)CNC(=O)C1=C[C@@H](O)[C@@H](O)[C@H](O)C1)C(=O)N[C@@H](CC(C)C)C(=O)N[C@@H](CCCNC(=N)N)C(=O)N1CCC[C@H]1C(=O)N[C@H](C)C(N)=O [Example 49c, NAc-D2Nal^1 -D4ClPhe^2 -D3Pal^3 -Ser^4 -NMeTyr^5 -DOrn(N-epsilon-Gly-Shikimyl)^6 -Leu^7 -Arg^8 -Pro^9 -DAla^10 NH2] (Ac-[d2Nal][dPhe(4-Cl)][d3Pal]S[NMeY][dOrn]([Gly-Shikimoyl])LRP[dA]-NH2) | 42.7
CC(=O)N[C@H](Cc1ccc2ccccc2c1)C(=O)N[C@H](Cc1ccc(Cl)cc1)C(=O)N[C@H](Cc1cccnc1)C(=O)N[C@@H](CO)C(=O)N(C)[C@@H](Cc1ccc(O)cc1)C(=O)N[C@H](CCCCNC(=O)[C@@H](Cc1cn(C=O)c2ccccc12)NC(=O)C1=C[C@@H](O)[C@@H](O)[C@H](O)C1)C(=O)N[C@@H](CC(C)C)C(=O)N[C@@H](CCCNC(=N)N)C(=O)N1CCC[C@H]1C(=O)N[C@H](C)C(N)=O [Example 65a, NAc-D2Nal^1 -D4ClPhe^2 -D3Pal^3 -Ser^4 -NMeTyr^5 -DLys(N-epsilon-DTrp(Formyl)-Shikimyl)^6 -Leu^7 -Arg^8 -Pro^9 -DAla^10 NH2] (Ac-[d2Nal][dPhe(4-Cl)][d3Pal]S[NMeY][dK](X3)LRP[dA]-NH2) | 25.1
CC(=O)N[C@H](Cc1ccc2ccccc2c1)C(=O)N[C@H](Cc1ccc(Cl)cc1)C(=O)N[C@H](Cc1cccnc1)C(=O)N[C@@H](CO)C(=O)N(C)[C@@H](Cc1ccc(O)cc1)C(=O)N[C@H](CCCCNC(=O)CNC(=O)CNC(=O)c1cccnc1)C(=O)N[C@@H](CC(C)C)C(=O)N[C@@H](CCCCNC(C)C)C(=O)N1CCC[C@H]1C(=O)N[C@H](C)C(N)=O [Example 19c, NAc-D2Nal^1 -D4ClPhe^2 -D3Pal^3 -Ser^4 -NMeTyr^5 -DLys[N-epsilon-Gly-Gly-Nicotinyl]^6 -Leu^7 -Lys(N-epsilon-Isopropyl)^8 -Pro^9 -DAla^10 NH2] (Ac-[d2Nal][dPhe(4-Cl)][d3Pal]S[NMeY][dK]([Gly-Gly-Nicotinoyl])L[Lys(iPr)]P[dA]-NH2) | 3.31
CC(=O)N[C@H](Cc1ccc2ccccc2c1)C(=O)N[C@H](Cc1ccc(Cl)cc1)C(=O)N[C@H](Cc1cccnc1)C(=O)N[C@@H](CO)C(=O)N(C)[C@@H](Cc1ccc(O)cc1)C(=O)N[C@H](CCCCNC(=O)CNC(=O)C1=C[C@@H](O)[C@@H](O)[C@H](O)C1)C(=O)N[C@@H](CC(C)C)C(=O)N[C@@H](CCCNC(=N)N)C(=O)N1CCC[C@H]1C(=O)N[C@H](C)C(N)=O [Example 17, NAc-D2Nal^1 -D4ClPhe^2 -D3Pal^3 -Ser^4 -NMeTyr^5 -DLys(N-epsilon-Gly-Shikimyl)^6 -Leu^7 -Arg^8 -Pro^9 -DAla^10 NH2] (Ac-[d2Nal][dPhe(4-Cl)][d3Pal]S[NMeY][dK]([Gly-Shikimoyl])LRP[dA]-NH2) | 7.24
CC(=O)N[C@H](Cc1ccc2ccccc2c1)C(=O)N[C@H](Cc1ccc(Cl)cc1)C(=O)N[C@H](Cc1cccnc1)C(=O)N[C@@H](CO)C(=O)N(C)[C@@H](Cc1ccc(O)cc1)C(=O)N[C@H](CCCCNC(=O)CCNC(=O)CNC(=O)c1ccco1)C(=O)N[C@@H](CC(C)C)C(=O)N[C@@H](CCCCNC(C)C)C(=O)N1CCC[C@H]1C(=O)N[C@H](C)C(N)=O [Example 57c, NAc-D2Nal^1 -D4ClPhe^2 -D3Pal^3 -Ser^4 -NMeTyr^5 -DLys(N-epsilon-beta-alanyl-glycyl-furoyl)^6 -Leu^7 -Lys(Isp)^8 -Pro^9 -DAla^10 NH2] (Ac-[d2Nal][dPhe(4-Cl)][d3Pal]S[NMeY][dK]([βAla-Gly-2Furoyl])L[Lys(iPr)]P[dA]-NH2) | 18.6
CC(=O)N[C@H](Cc1ccc2ccccc2c1)C(=O)N[C@H](Cc1ccc(Cl)cc1)C(=O)N[C@H](Cc1cccnc1)C(=O)N[C@@H](CO)C(=O)N(C)[C@@H](Cc1ccc(O)cc1)C(=O)N[C@H](CCCCNC(=O)NNC(=O)c1ccccc1O)C(=O)N[C@@H](CC(C)C)C(=O)N[C@@H](CCCCNC(C)C)C(=O)N1CCC[C@H]1C(=O)N[C@H](C)C(N)=O [Example 5c, NAc-D2Nal^1 -D4ClPhe^2 -D3Pal^3 -Ser^4 -NMeTyr^5 -DLys(N-epsilon-Azagly-Salicyl)^6 -Leu^7 -Lys(N-epsilon-Isopropyl)^8 -Pro^9 -DAla^10 NH2] (Ac-[d2Nal][dPhe(4-Cl)][d3Pal]S[NMeY][dK]([azaGly-Salicyloyl])L[Lys(iPr)]P[dA]-NH2) | 13.2
